Measured values taken from US7196074B2, “Methods of making, using and pharmaceutical formulations comprising 7α, 11β-dimethyl-17β-hydroxyestra-4, 14-dien-3-one and 17 esters thereof” (The United States of America as represented by the …, priority 2000, dated 2007).

Assays:
ventral prostate weight [1] = assay: Duration of androgenic activity after subcutaneous injection, ventral prostate weight over weeks in orchidectomized immature rats; assay type: in vivo, Sprague-Dawley rats
Procedure: Immature (about 21-day-old) Sprague-Dawley rats were orchidectomized under anesthesia, and randomly assignee to groups of ten animals for each dose level of the active undergoing testing. Each active was administered by subcutaneous injection each day for seven days beginning on the date of the orchidectomy. The animals were sacrificed 24 hours after the last dose, and the ventral prostate and seminal vesicles were excised, cleaned of fat and connective tissue, blotted on moist filter paper and weighed to the nearest 0.1 mg. Regression analysis was performed by conventional methods using a PROPHET data management system. Ventral prostate weight was used as the endpoint because it is the sensitive organ to androgenic stimulation.
Except for testosterone enanthate, each active was formulated in two different carriers: (1) an aqueous suspension and (2) in sesame oil. Testosterone enanthate was formulated using the sesame oil carrier only, because it exists as a liquid at room temperature and could not therefore be formulated as an aqueous suspension.
(§1) The carrier used to provide the aqueous suspension was formulated as follows: 1 g benzyl alcohol, 0.5 g sodium carboxylethyl cellulose 50, 0.376 g disodium hydrogen phosphate dihydrate, 1.495 g sodium dihydrogen phosphate dihydrate, with water for injection (WFI) being added to bring volume of the carrier up to 100 ml.
Each formulation was prepared at a concentration of 0.6 mg/0.2 ml.
Immature (about 21-day-old) Sprague-Dawley rats were orchidectomized under anesthesia, and randomly assignee to groups of 40 or more. Animals received a single subcutaneous injection of 0.6 mg of each ester in 0.2 ml of an aqueous suspending carrier and/or oily carrier (10% ethanol/90% sesame oil or ethyl oleate) on the date of the orchidectomy. In cases where the ester was not solid at room temperature, 10% ethanol/sesame oil or ethyl oleate was used as the carrier. In this example, the carrier used to provide the aqueous suspension was formulated as follows: 1 g benzyl alcohol, 0.5 g sodium carboxylethyl cellulose 50, 0.376 g disodium hydrogen phosphate dihydrate, 1.495 g sodium dihydrogen phosphate dihydrate, with water for injection (WFI) being added to bring volume of the carrier up to 100 ml.
Five animals from each group were sacrificed at weekly or biweekly intervals, and the ventral prostate and seminal vesicles were excised, cleaned of fat and connective tissue, blotted on moist filter paper and weighed to the nearest 0.1 mg.
Ventral prostate weight was used as the endpoint because it is the sensitive organ to androgenic stimulation. Regression analysis was performed by conventional methods using the PROPHET data management system previously identified.
Immature (about 21-day-old) Sprague-Dawley rats were orchidectomized under anesthesia, and randomly assignee to groups of 40 or more. Animals received a single subcutaneous injection of 0.6 mg of the undecanoate in 0.2 ml of an aqueous suspending carrier and/or oily carrier (10% ethanol/90% sesame oil containing 5 mg/ml chlorobutanol as a preservative, or ethyloleate) on the date of the orchidectomy. The enanthate ester was formulated using the 10% ethanol/sesame oil or ethyloleate carrier as a first standard, with the 10% ethanol/sesame oil carrier used as a second standard.
as §1, with “In this example, the” for “The”
Immature (about 21-day-old) Sprague-Dawley rats were orchidectomized under anesthesia, and randomly assignee to groups of 40 or more. […] The enanthate ester was formulated using the 10% ethanol/sesame oil or ethyloleate carrier as a first standard, with the 10% ethanol/sesame oil carrier used as a second standard.

ventral prostate weight [2] = assay: Subcutaneous androgenic potency, ventral prostate weight assay in orchidectomized immature rats (injection daily for seven days); assay type: in vivo, Sprague-Dawley rats; conditions: for Androgenic Potency (activity of corresponding alcohol): ventral prostate weight assay following subcutaneous administration, alcohol of G = 1.0 (assigned), value is for the free alcohol of the listed ester
Procedure: (§2) Immature (about 21-day-old) Sprague-Dawley rats were orchidectomized under anesthesia, and randomly assignee to groups of ten animals for each dose level of the active undergoing testing. Each active was dissolved in 10% ethanol/sesame oil and administered by gavage (oral) or subcutaneous injection each day for seven days beginning on the date of the orchidectomy. The animals were sacrificed 24 hours after the last dose, and the ventral prostate and seminal vesicles were excised, cleaned of fat and connective tissue, blotted on moist filter paper and weighed to the nearest 0.1 mg. Regression analysis was performed by conventional methods using a PROPHET data management system. Ventral prostate weight was used as the endpoint because it is the sensitive organ to androgenic stimulation.
as §2, with “by” for “by gavage (oral) or”, “mg. See, e.g., Hershberger, L. et al, Myotrophic Activity of 19-nortestosterone And Other Steroids Determined By Modified Levator And Muscle Method, Proc. Soc. Exptl. Bid. Med. 83 175–180 (1953).” for “mg.”, “system. See, e.g., Bliss, C., The Statistics of Bioassay (Academic Press, New York, 1952); Hollister, C., Nucleic Acids Res. 16 1873–75 (1988).” for “system.”
Immature (about 22-day-old) Sprague-Dawley male rats were orchidectomized under anesthesia, and randomly assignee to groups of ten animals for each dose level of the active undergoing testing. […] Illumination was controlled for 14 hour periods of light and 10 hours of darkness.
Each active was administered by subcutaneous injection of 0.6 mg of test material in aqueous suspending vehicle (ASV) and/or an oily vehicle (10% ethanol/sesame oil) on the day of surgery. Testosterone enanthate in sesame oil was used as a standard. The ventral prostate and seminal vesicles were excised, cleaned of fat and connective tissue, blotted on moist filter paper and weighed to the nearest 0.1 mg. Regression analysis was performed by conventional methods using a PROPHET data management system. Ventral prostate weight was used as the endpoint because it is the sensitive organ to androgenic stimulation.

androgen receptor = molecular target: T1, androgen receptor (Rattus norvegicus, UniProt P15207); assay: Relative binding affinity to the androgen receptor; conditions: from rat prostate; relative to methyltrienolone = 100%; value is for the free alcohol of the listed ester
T1 sequence (P15207 1-902): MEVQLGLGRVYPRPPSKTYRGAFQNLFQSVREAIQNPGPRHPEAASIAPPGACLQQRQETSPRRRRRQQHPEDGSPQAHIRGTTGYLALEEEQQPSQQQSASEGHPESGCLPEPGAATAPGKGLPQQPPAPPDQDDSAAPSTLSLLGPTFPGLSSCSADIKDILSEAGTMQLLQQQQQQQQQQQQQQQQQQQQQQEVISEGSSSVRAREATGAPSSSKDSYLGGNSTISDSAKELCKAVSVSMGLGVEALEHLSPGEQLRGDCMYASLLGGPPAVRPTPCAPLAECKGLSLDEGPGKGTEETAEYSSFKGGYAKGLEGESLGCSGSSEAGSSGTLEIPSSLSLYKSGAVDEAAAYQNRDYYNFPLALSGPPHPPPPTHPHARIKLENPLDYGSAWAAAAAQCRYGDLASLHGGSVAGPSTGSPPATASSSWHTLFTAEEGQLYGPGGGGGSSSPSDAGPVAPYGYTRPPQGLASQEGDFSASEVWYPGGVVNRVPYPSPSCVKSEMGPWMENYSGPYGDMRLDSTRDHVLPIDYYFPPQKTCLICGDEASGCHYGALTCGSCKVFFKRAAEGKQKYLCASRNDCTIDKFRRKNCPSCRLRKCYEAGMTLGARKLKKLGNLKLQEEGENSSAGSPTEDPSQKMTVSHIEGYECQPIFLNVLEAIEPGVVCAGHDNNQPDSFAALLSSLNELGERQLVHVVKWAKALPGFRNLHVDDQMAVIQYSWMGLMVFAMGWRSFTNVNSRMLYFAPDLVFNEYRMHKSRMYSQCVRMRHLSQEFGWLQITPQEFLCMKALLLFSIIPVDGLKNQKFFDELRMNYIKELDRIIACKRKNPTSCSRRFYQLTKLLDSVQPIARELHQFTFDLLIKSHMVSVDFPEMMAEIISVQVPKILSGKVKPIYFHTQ
Procedure: In addition to the foregoing, the androgenic potency and relative binding affinity to the androgen receptor of several free alcohols after subcutaneous administration of their corresponding esters was also determined.

CCCCC1CCC(C(=O)O[C@H]2CC[C@H]3[C@H]4[C@H]([C@H](C)C[C@]23C)[C@H]2CCC(=O)C=C2C[C@H]4C)CC1 (stereo partly drawn) [CDB-4386, 7α, 11α-Dimethyl-19-nortestosterone-17β-bucyclate, reference compound]
ventral prostate weight over time after single subcutaneous injection (in words) (ventral prostate weight [1]; 0.6 mg in 0.2 ml, both oily and aqueous carriers, evaluation discontinued at 8 weeks, FIG. 8): inactive | activity in potency and duration after subcutaneous injection (in words), FIG. 5 (ventral prostate weight [1]; 0.6 mg/0.2 ml, aqueous suspension or sesame oil, ventral prostate weight): relatively low activity | activity after subcutaneous administration (in words) (ventral prostate weight [2]; subcutaneous injection daily for 7 days in 10% ethanol/sesame oil, ventral prostate weight): weak activity

CCCCC1CCC(C(=O)O[C@H]2CC[C@H]3[C@@H]4CCC5=CC(=O)CC[C@]5(C)[C@H]4CC[C@]23C)CC1 (some centres unmarked) [testosterone bucyclate, Testosterone bucyclate, reference compound]
potency and long-term activity after subcutaneous injection versus 0.6 mg CDB-4386A in aqueous suspension (in words), FIG. 5 (ventral prostate weight [1]; 1.0 mg/0.2 ml, aqueous suspension, ventral prostate weight): significantly less | Androgenic Potency (activity of corresponding alcohol) (ventral prostate weight [2]): 1.0 (assigned)

C[C@]1(O)CC[C@H]2[C@@H]3CCC4=CC(=O)CCC4=C3C=C[C@@]21C [methyltrienolone]
Relative Binding Affinity (activity of corresponding alcohol) (androgen receptor): 100% | Androgenic Potency (activity of corresponding alcohol) (ventral prostate weight [2]): 5.0

C[C@@H]1CC2=CC(=O)CC[C@@H]2[C@@H]2[C@@H]1[C@@H]1CC[C@H](O)[C@@]1(C)C[C@@H]2C
melting point: 155 to 157 °C
